The supplement of paper PMC13207355

What was measured:
Conditions in all cases: exposure time: 72 h
E13 [1] = patient-derived glioblastoma stem cells of classical subtype; assay: surviving fraction (nuclei count normalised to DMSO); higher = more cells surviving (less toxic)
E21 [2] = patient-derived glioblastoma stem cells of mesenchymal subtype; assay: as above
E28 [3] = patient-derived glioblastoma stem cells of classical subtype; assay: as above
E31 [4] = patient-derived glioblastoma stem cells of proneural subtype; assay: as above
E34 [5] = patient-derived glioblastoma stem cells of proneural subtype; assay: as above
E57 [6] = patient-derived glioblastoma stem cells of mesenchymal subtype; assay: as above
FT3469 [7] = normal neural stem cell line; assay: as above
E13 [8] = assay: phenotypic distance (Euclidean, principal components) from DMSO controls (arbitrary units); higher = stronger morphological change
E21 [9] = assay: as above
E28 [10] = assay: as above
E31 [11] = assay: as above
E34 [12] = assay: as above
E57 [13] = assay: as above
FT3469 [14] = assay: as above
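For phenotypic distance (Euclidean, principal components) from DMSO controls in this document: cell Painting imaging in 384-well plates, CellProfiler features reduced to at least 20 principal components, Euclidean distance versus same-plate DMSO vehicle wells (0.1% v/v), median over six images per well.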
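For surviving fraction (nuclei count normalised to DMSO) in this document: nuclei counted by high-content imaging of Hoechst-stained cells in laminin-coated 384-well plates, relative to 0.1% DMSO vehicle wells, with staurosporine as cell-death control.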

O=C1CCc2cc(OCCCCc3nnnn3C3CCCCC3)ccc2N1 [Cilostazol]
Conditions	phenotypic distance	surviving fraction
E13 [1], 4.1 nM	–	0.989
E13 [1], 12.3 nM	–	1.04
E13 [1], 37 nM	–	1.01
E13 [1], 111.1 nM	–	0.931
E13 [1], 333.3 nM	–	0.933
E13 [1], 1000 nM	–	0.98
E13 [1], 3000 nM	–	0.897
E13 [8], 4.1 nM	0.5	–
E13 [8], 12.3 nM	0.664	–
E13 [8], 37 nM	1.06	–
E13 [8], 111.1 nM	0.612	–
E13 [8], 333.3 nM	0.287	–
E13 [8], 1000 nM	0.5	–
E13 [8], 3000 nM	0.553	–
E21 [2], 4.1 nM	–	0.933
E21 [2], 12.3 nM	–	1.09
E21 [2], 37 nM	–	1.03
E21 [2], 111.1 nM	–	1.04
E21 [2], 333.3 nM	–	0.973
E21 [2], 1000 nM	–	0.949
E21 [2], 3000 nM	–	0.934
E21 [9], 4.1 nM	0.676	–
E21 [9], 12.3 nM	1.17	–
E21 [9], 37 nM	1.02	–
E21 [9], 111.1 nM	1.46	–
E21 [9], 333.3 nM	0.998	–
E21 [9], 1000 nM	1.13	–
E21 [9], 3000 nM	1.15	–
E28 [3], 4.1 nM	–	0.916
E28 [3], 12.3 nM	–	1.13
E28 [3], 37 nM	–	0.892
E28 [3], 111.1 nM	–	1.2
E28 [3], 333.3 nM	–	1.01
E28 [3], 1000 nM	–	1.12
E28 [3], 3000 nM	–	0.914
E28 [10], 4.1 nM	0.648	–
E28 [10], 12.3 nM	0.777	–
E28 [10], 37 nM	0.65	–
E28 [10], 111.1 nM	1.01	–
E28 [10], 333.3 nM	1.82	–
E28 [10], 1000 nM	0.846	–
E28 [10], 3000 nM	0.458	–
E31 [4], 4.1 nM	–	0.919
E31 [4], 12.3 nM	–	1.04
E31 [4], 37 nM	–	0.905
E31 [4], 111.1 nM	–	0.98
E31 [4], 333.3 nM	–	0.963
E31 [4], 1000 nM	–	0.832
E31 [4], 3000 nM	–	0.832
E31 [11], 4.1 nM	0.904	–
E31 [11], 12.3 nM	0.814	–
E31 [11], 37 nM	0.863	–
E31 [11], 111.1 nM	0.598	–
E31 [11], 333.3 nM	0.893	–
E31 [11], 1000 nM	0.881	–
E31 [11], 3000 nM	0.868	–
E34 [5], 4.1 nM	–	0.904
E34 [5], 12.3 nM	–	1.1
E34 [5], 37 nM	–	0.938
E34 [5], 111.1 nM	–	0.937
E34 [5], 333.3 nM	–	1.05
E34 [5], 1000 nM	–	1.04
E34 [5], 3000 nM	–	0.959
E34 [12], 4.1 nM	0.293	–
E34 [12], 12.3 nM	0.701	–
E34 [12], 37 nM	0.573	–
E34 [12], 111.1 nM	1.28	–
E34 [12], 333.3 nM	0.55	–
E34 [12], 1000 nM	0.46	–
E34 [12], 3000 nM	0.733	–
E57 [6], 4.1 nM	–	0.991
E57 [6], 12.3 nM	–	0.969
E57 [6], 37 nM	–	0.975
E57 [6], 111.1 nM	–	1.04
E57 [6], 333.3 nM	–	0.91
E57 [6], 1000 nM	–	0.839
E57 [6], 3000 nM	–	0.817
E57 [13], 4.1 nM	0.508	–
E57 [13], 12.3 nM	0.665	–
E57 [13], 37 nM	0.802	–
E57 [13], 111.1 nM	0.893	–
E57 [13], 333.3 nM	1.16	–
E57 [13], 1000 nM	1.49	–
E57 [13], 3000 nM	1.42	–
FT3469 [7], 4.1 nM	–	1.03
FT3469 [7], 12.3 nM	–	1.03
FT3469 [7], 37 nM	–	0.96
FT3469 [7], 111.1 nM	–	1.02
FT3469 [7], 333.3 nM	–	0.949
FT3469 [7], 1000 nM	–	1.16
FT3469 [7], 3000 nM	–	0.891
FT3469 [14], 4.1 nM	0.483	–
FT3469 [14], 12.3 nM	0.448	–
FT3469 [14], 37 nM	0.352	–
FT3469 [14], 111.1 nM	0.643	–
FT3469 [14], 333.3 nM	3.23	–
FT3469 [14], 1000 nM	0.826	–
FT3469 [14], 3000 nM	0.541	–
